The kinase profiling compilation of Christmann-Franck et al. (2016)
“And” between values parts separate entries of the source, which are not always exact repeats. Equal values may be shown once.

Columns and labels:
Experiment in all cases: radiometric filter-binding kinase assay, Kinase HotSpot
Details in all cases: compound 0.5 µM; ATP 10 µM
HIPK1 (human) = HIPK1 (human) (UniProt Q86Z02)
NEK11 (human) = NEK11 (human) (UniProt Q8NG66)
FGFR3 (human) = FGFR3 (human) (UniProt P22607)
PRKD1 (human) = PRKD1 (human) (UniProt Q15139)
JAK3 JH1 JH2 (human) = JAK3 JH1 JH2 (human) (UniProt P52333)
PRKD2 (human) = PRKD2 (human) (UniProt Q9BZL6)
SLK (human) = SLK (human) (UniProt Q9H2G2)
NTRK1 (human) = NTRK1 (human) (UniProt P04629)
CAMK2G (human) = CAMK2G (human) (UniProt Q13555)
EPHB3 (human) = EPHB3 (human) (UniProt P54753)
MARK3 (human) = MARK3 (human) (UniProt P27448)
MAPK12 (human) = MAPK12 (human) (UniProt P53778)
EPHA2 (human) = EPHA2 (human) (UniProt P29317)
PDGFRA (human) = PDGFRA (human) (UniProt P16234)
SRPK3 (human) = SRPK3 (human) (UniProt Q9UPE1)
DYRK1B (human) = DYRK1B (human) (UniProt Q9Y463)
GRK4 (human) = GRK4 (human) (UniProt P32298)
HCK (human) = HCK (human) (UniProt P08631)
DYRK2 (human) = DYRK2 (human) (UniProt Q92630)
MET (human) = MET (human) (UniProt P08581)
NTRK3 (human) = NTRK3 (human) (UniProt Q16288)
NEK7 (human) = NEK7 (human) (UniProt Q8TDX7)
MAPK8 (human) = MAPK8 (human) (UniProt P45983)
RPS6KB1 (human) = RPS6KB1 (human) (UniProt P23443)
ACVR1 (human) = ACVR1 (human) (UniProt Q04771)
MAPKAPK5 (human) = MAPKAPK5 (human) (UniProt Q8IW41)
RPS6KA1 KD1 KD2 (human) = RPS6KA1 KD1 KD2 (human) (UniProt Q15418)
BRSK2 (human) = BRSK2 (human) (UniProt Q8IWQ3)
PTK2 (human) = PTK2 (human) (UniProt Q05397)
CSNK1A1 (human) = CSNK1A1 (human) (UniProt P48729)
NLK (human) = NLK (human) (UniProt Q9UBE8)
CAMK1G (human) = CAMK1G (human) (UniProt Q96NX5)
CAMK1D (human) = CAMK1D (human) (UniProt Q8IU85)
PNCK (human) = PNCK (human) (UniProt Q6P2M8)
MINK1 (human) = MINK1 (human) (UniProt Q8N4C8)
MST4 (human) = MST4 (human) (UniProt Q9P289)
PRKCZ (human) = PRKCZ (human) (UniProt Q05513)
DDR2 (human) = DDR2 (human) (UniProt Q16832)
NEK1 (human) = NEK1 (human) (UniProt Q96PY6)
TBK1 (human) = TBK1 (human) (UniProt Q9UHD2)
PRKG1 (human) = PRKG1 (human) (UniProt Q13976)
MAP3K3 (human) = MAP3K3 (human) (UniProt Q99759)

Sequence of PRKG1 (human) (Q13976 whole entry, looked up): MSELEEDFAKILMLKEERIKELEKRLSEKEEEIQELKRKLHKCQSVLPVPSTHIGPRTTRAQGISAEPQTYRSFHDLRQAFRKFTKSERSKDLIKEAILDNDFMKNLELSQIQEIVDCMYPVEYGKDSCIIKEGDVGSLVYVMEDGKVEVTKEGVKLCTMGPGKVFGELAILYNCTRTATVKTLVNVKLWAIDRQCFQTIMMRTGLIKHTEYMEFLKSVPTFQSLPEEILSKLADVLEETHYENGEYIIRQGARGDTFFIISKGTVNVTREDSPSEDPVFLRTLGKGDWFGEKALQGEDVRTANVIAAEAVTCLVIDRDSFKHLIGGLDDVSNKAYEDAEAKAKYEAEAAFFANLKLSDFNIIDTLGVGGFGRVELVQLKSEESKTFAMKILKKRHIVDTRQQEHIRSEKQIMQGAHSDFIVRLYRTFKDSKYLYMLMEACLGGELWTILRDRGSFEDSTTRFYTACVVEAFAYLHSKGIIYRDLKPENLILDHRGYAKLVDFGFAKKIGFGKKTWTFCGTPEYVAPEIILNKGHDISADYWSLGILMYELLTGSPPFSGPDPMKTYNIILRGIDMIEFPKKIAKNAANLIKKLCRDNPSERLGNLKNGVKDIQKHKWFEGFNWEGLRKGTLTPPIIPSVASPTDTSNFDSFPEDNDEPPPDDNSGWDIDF
Sequence of BRSK2 (human) (Q8IWQ3 whole entry, looked up): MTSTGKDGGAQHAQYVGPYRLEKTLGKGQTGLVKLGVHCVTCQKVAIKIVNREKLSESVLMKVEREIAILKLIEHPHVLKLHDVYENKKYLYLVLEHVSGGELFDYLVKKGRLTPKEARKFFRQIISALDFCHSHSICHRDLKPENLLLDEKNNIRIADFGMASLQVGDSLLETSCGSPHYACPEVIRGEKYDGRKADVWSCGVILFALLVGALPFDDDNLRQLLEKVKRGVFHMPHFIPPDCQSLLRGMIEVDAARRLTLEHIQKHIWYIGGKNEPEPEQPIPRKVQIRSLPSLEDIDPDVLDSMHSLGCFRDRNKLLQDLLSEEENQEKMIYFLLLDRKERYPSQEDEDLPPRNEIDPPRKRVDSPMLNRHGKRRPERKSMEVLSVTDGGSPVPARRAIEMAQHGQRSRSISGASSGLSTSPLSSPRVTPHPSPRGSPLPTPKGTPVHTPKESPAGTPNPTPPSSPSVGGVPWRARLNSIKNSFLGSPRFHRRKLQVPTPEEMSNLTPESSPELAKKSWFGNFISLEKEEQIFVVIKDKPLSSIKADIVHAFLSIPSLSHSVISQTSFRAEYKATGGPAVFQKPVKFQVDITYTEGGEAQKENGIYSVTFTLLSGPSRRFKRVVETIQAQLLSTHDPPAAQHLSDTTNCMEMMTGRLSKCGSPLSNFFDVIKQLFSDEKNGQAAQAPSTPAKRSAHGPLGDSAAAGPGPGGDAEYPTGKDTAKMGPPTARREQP
Sequence of RPS6KB1 (human) (P23443 whole entry, looked up): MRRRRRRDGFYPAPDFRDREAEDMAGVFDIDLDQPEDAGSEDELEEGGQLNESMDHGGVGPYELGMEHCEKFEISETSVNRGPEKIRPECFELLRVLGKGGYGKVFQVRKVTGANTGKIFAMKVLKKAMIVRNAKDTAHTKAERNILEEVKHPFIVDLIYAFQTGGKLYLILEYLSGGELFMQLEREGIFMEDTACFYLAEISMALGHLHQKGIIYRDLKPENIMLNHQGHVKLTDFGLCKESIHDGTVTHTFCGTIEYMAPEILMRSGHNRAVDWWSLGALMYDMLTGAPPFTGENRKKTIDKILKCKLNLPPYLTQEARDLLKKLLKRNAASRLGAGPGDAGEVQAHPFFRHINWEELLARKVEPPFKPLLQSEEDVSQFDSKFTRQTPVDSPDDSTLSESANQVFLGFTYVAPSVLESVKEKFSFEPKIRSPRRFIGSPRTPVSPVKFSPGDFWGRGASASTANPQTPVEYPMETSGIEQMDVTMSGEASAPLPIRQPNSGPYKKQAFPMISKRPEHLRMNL
Sequence of HCK (human) (P08631 whole entry, looked up): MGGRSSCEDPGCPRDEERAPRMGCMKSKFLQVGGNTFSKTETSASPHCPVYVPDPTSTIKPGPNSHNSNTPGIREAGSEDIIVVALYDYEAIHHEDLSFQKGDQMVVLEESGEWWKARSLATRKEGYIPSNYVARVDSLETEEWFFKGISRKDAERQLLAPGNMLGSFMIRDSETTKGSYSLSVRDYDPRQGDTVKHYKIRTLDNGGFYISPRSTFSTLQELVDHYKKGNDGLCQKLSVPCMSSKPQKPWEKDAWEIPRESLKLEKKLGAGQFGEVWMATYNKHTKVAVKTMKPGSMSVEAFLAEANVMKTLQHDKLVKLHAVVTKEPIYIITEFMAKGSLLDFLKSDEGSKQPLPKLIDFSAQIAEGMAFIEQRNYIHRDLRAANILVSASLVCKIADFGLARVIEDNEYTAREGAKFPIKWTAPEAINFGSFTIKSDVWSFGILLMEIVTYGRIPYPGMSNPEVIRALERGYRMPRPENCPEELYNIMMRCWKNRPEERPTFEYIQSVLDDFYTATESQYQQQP
Sequence of SRPK3 (human) (Q9UPE1 whole entry, looked up): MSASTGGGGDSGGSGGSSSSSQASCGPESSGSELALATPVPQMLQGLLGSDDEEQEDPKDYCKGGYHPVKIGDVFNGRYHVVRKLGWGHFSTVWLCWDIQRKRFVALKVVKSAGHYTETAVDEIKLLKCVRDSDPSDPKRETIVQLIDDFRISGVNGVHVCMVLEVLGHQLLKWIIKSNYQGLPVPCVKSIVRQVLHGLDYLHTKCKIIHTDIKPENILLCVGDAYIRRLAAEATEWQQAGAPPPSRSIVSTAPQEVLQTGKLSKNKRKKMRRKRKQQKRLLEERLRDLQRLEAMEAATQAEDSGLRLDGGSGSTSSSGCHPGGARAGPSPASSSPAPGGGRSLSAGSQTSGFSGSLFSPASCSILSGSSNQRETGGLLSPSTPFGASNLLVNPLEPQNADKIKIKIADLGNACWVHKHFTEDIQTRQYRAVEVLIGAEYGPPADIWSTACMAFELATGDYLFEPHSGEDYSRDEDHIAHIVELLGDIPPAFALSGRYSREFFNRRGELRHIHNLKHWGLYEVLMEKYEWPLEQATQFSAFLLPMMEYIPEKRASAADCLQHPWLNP
Sequence of CAMK1G (human) (Q96NX5 whole entry, looked up): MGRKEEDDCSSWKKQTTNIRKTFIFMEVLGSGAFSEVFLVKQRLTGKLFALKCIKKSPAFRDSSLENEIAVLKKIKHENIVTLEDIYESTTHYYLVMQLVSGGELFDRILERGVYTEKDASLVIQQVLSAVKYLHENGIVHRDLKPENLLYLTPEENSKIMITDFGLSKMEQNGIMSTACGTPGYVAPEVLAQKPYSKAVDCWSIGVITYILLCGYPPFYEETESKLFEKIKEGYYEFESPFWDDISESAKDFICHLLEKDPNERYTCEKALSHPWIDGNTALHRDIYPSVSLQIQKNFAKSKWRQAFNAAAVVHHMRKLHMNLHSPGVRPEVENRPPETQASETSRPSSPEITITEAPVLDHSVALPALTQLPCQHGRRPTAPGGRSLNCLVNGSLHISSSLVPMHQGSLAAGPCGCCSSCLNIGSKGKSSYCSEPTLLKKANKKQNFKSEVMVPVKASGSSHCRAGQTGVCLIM
Sequence of FGFR3 (human) (P22607 whole entry, looked up): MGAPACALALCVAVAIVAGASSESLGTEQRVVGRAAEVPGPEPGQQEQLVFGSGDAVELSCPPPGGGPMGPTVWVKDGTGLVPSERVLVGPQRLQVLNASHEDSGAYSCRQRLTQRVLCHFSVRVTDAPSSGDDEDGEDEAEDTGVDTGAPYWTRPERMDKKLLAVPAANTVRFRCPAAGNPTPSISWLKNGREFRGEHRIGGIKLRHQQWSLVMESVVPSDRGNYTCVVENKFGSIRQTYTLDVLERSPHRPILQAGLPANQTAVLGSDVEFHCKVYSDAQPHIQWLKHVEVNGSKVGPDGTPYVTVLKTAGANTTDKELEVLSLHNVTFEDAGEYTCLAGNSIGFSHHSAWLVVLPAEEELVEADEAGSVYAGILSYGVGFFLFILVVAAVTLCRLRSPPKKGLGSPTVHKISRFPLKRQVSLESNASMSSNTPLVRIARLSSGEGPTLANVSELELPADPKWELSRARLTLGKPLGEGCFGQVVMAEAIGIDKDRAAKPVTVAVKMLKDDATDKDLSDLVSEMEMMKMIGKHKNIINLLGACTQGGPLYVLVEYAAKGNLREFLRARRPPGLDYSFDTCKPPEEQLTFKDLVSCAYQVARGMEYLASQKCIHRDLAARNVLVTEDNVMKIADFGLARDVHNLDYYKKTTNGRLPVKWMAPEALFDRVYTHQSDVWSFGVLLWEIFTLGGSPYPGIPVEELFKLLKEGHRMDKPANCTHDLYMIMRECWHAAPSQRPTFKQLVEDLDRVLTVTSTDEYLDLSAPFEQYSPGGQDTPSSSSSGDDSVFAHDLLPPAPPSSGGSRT
Sequence of CAMK1D (human) (Q8IU85 whole entry, looked up): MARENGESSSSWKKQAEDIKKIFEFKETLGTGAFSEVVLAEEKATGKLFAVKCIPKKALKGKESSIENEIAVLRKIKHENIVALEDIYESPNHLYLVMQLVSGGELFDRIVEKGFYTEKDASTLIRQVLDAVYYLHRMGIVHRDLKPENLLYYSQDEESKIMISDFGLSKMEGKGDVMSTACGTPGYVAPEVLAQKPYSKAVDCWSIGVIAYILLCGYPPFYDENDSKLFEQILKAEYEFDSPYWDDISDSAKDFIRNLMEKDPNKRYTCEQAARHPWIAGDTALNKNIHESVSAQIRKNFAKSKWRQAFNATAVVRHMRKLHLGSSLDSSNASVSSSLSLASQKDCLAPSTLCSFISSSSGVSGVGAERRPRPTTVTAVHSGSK
Sequence of NEK7 (human) (Q8TDX7 whole entry, looked up): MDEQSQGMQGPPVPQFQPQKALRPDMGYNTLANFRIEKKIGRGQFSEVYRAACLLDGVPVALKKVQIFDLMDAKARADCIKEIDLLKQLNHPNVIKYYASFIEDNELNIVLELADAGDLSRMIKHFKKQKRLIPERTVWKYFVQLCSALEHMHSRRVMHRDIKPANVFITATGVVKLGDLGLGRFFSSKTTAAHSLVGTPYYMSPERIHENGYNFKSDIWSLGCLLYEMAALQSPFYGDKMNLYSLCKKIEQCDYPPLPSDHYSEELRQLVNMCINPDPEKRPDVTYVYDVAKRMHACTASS

Compound: Cn1c2ccccc2c2c3c(c4c5ccccc5n(CCC#N)c4c21)CNC3=O
- residual activity (HIPK1 (human)): 81.1%
- residual activity (NEK11 (human)): 110%
- residual activity (FGFR3 (human)): 76.7%
- residual activity (PRKD1 (human)): 17.3%
- residual activity (JAK3 JH1 JH2 (human)): 2.44%
- residual activity (PRKD2 (human)): 18.7%
- residual activity (SLK (human)): 34.1%
- residual activity (NTRK1 (human)): 1.64%
- residual activity (CAMK2G (human)): 21.9%
- residual activity (EPHB3 (human)): 87.2%
- residual activity (MARK3 (human)): 13.9%
- residual activity (MAPK12 (human)): 85.8%
- residual activity (EPHA2 (human)): 92.5%
- residual activity (PDGFRA (human)): 83.5%
- residual activity (SRPK3 (human)): 92.8%
- residual activity (DYRK1B (human)): 25.6%
- residual activity (GRK4 (human)): 75.1%
- residual activity (HCK (human)): 96.8%
- residual activity (DYRK2 (human)): 48.9%
- residual activity (MET (human)): 100%
- residual activity (NTRK3 (human)): 0.198%
- residual activity (NEK7 (human)): 97%
- residual activity (MAPK8 (human)): 78.7%
- residual activity (RPS6KB1 (human)): 6.71%
- residual activity (ACVR1 (human)): 155%
- residual activity (MAPKAPK5 (human)): 127%
- residual activity (RPS6KA1 KD1 KD2 (human)): 9.7%
- residual activity (BRSK2 (human)): 26.3%
- residual activity (PTK2 (human)): 77%
- residual activity (CSNK1A1 (human)): 75.4%
- residual activity (NLK (human)): 57.3%
- residual activity (CAMK1G (human)): 101%
- residual activity (CAMK1D (human)): 82.4%
- residual activity (PNCK (human)): 103%
- residual activity (MINK1 (human)): 2.48%
- residual activity (MST4 (human)): 89.8%
- residual activity (PRKCZ (human)): 87%
- residual activity (DDR2 (human)): 73.3%
- residual activity (NEK1 (human)): 62.9%
- residual activity (TBK1 (human)): 72.1%
- residual activity (PRKG1 (human)): 80.2% and 84.3%
- residual activity (MAP3K3 (human)): 5.86%

Compound: Cc1nc(-c2ccccc2)c(-c2ccncc2)o1
- residual activity (HIPK1 (human)): 102%
- residual activity (NEK11 (human)): 76.7%
- residual activity (FGFR3 (human)): 95.6%
- residual activity (PRKD1 (human)): 95.6%
- residual activity (JAK3 JH1 JH2 (human)): 90.7%
- residual activity (PRKD2 (human)): 97.7%
- residual activity (SLK (human)): 101%
- residual activity (NTRK1 (human)): 94.3%
- residual activity (CAMK2G (human)): 91.7%
- residual activity (EPHB3 (human)): 99.2%
- residual activity (MARK3 (human)): 107%
- residual activity (MAPK12 (human)): 105%
- residual activity (EPHA2 (human)): 104%
- residual activity (PDGFRA (human)): 96.3%
- residual activity (SRPK3 (human)): 103%
- residual activity (DYRK1B (human)): 98.9%
- residual activity (GRK4 (human)): 94.3%
- residual activity (HCK (human)): 98.9%
- residual activity (DYRK2 (human)): 98.6%
- residual activity (MET (human)): 102%
- residual activity (NTRK3 (human)): 105%
- residual activity (NEK7 (human)): 102%
- residual activity (MAPK8 (human)): 99.5%
- residual activity (RPS6KB1 (human)): 92.8%
- residual activity (ACVR1 (human)): 104%
- residual activity (MAPKAPK5 (human)): 99.2%
- residual activity (RPS6KA1 KD1 KD2 (human)): 103%
- residual activity (BRSK2 (human)): 95%
- residual activity (PTK2 (human)): 106%
- residual activity (CSNK1A1 (human)): 86.4%
- residual activity (NLK (human)): 79.4%
- residual activity (CAMK1G (human)): 92.8%
- residual activity (CAMK1D (human)): 93.9%
- residual activity (PNCK (human)): 96.6%
- residual activity (MINK1 (human)): 97.9%
- residual activity (MST4 (human)): 114%
- residual activity (PRKCZ (human)): 103%
- residual activity (DDR2 (human)): 97.4%
- residual activity (NEK1 (human)): 103%
- residual activity (TBK1 (human)): 88%
- residual activity (PRKG1 (human)): 90.5% and 96.1%
- residual activity (MAP3K3 (human)): 101%
